According to patent US11261230B2, “Synthetic somatostatin receptor ligands” (TEL HASHOMER MEDICAL RESEARCH INFRASTRUCTURE AND SERVICES …, priority 2014, dated 2022):
*1 amine or outer side, *2 acyl side, *3 side chain or, on linkers, in order; H or OH if unused. Where a SMILES comes first, the peptide text is derived from it. Bridges are numbered along the chain shown (N, C = ends). [ ]: non-standard residue; d: D form. The star is where a group is joined. FITC = O=C1OC2(c3ccc(O)cc3Oc3cc(O)ccc32)c2ccc(NC(=S)*)cc21; N(2-mercaptoethyl)Gly = O=C(CN(CCS[*:3])[*:1])[*:2]; Aib = CC(C)(N)C(=O)O; GABA = NCCCC(=O)O

How the values were obtained:
PANC-1 tumors = details: mouse, in vivo
Method: Five different pharmaceutical compositions were prepared, each by dissolving 1 mg of a different Somatostatin receptor ligand in 1 liter PBS.
Solid human-derived tumors were induced in 15 nude mice by subcutaneous injection of a suspension containing ˜5□10^5 human cancer cells (PANC-1) into the flank area of the mice.
2-3 weeks after the injection of the cancer cells, it was observed that the mice developed solid tumors with diameters of approximately 5-10 mm.
0.3 ml of each one of the five pharmaceutical compositions were systemically administered to three of the fifteen xenograft mice by injection into the tail vein using a 30 G needle.
The fifteen mice were sacrificed and from the bodies tumors, pancreas, spleen, kidney and liver were harvested.
The fluorescence of the harvested tissue was determined using the Maestro™ in vivo fluorescence imaging system (Cambridge Research & Instrumentation, Inc., Woburn, Mass., USA).

human SSTR5 = target: T1, human SSTR5 (Homo sapiens, UniProt P35346); experiment: Binding to transfected HEK cells expressing a single SSTRx subtype, FACS and fluorescence microscopy
T1 construct: expressed in transfected cells; host or cells: HEK-293, transient transfection, pcDNA 3.1
T1 sequence (P35346 whole entry): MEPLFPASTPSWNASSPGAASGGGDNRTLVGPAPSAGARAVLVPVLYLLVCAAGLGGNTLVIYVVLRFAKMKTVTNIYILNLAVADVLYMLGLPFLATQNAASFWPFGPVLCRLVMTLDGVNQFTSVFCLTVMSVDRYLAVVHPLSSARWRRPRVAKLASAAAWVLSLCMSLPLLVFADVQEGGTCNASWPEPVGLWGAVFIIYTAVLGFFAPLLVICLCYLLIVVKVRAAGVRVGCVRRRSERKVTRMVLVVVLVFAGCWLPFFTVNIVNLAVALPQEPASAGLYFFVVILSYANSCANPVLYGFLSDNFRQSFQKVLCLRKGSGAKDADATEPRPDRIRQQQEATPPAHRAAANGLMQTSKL
Method: (§1) The affinity of compounds 1-16 to each of the five SSTRx was tested using an in vitro model of transfected cell lines (HEK—human embryonic kidney), each expressing a single human SSTRx subtype. Biological activity assessment of the compounds to define a specific affinity to each subtype was performed by FACS and fluorescence imaging methods.
(§2) Human SSTRx were expressed in the cells by transient transfection. Each SSTR was expressed separately, creating five different cell lines using human gene transcript.
(§3) The transfection process is illustrated in FIG. 1. The transient transfection process was carried out before each experiment. Briefly, HEK cells were cultured in standard cell growth conditions. For testing, the cells were transferred into 96-well plates. The tested compounds were dissolved in DMSO and then diluted in a buffer solution to a final DMSO concentration of 5% as a composition according to the teachings herein. Various amounts of the thus-prepared compositions were added to the cells in medium in the 96-well plates and allowed to incubate for between 1 and 24 hours. Binding was determined using fluorescent microscopy and FACS.
(§4) Qualitative assessment of binding efficiency was done by visual inspection and digital photography using an inverted fluorescent microscope. Quantitative assessment was done using FACS.
(§5) HEK-293 cells (human embryonic kidney) were grown in Dulbecco's modified Eagle's medium (DMEM) supplemented with 4 mM glutamine, 10% fetal bovine serum (FBS) and 100 units/ml penicillin/streptomycin at 37° C./5% carbon dioxide. One day prior to transfection, the cells were trypsinized, counted and plated at a density of 3×10^5 per 35 mm diameter dish. Until 70% confluency, cells were transiently transfected with the pcDNA 3.1 vector bearing the coding region for the human SSTR human somatostatin receptor subtypes SSTR1-SSTR5. Transfections were carried out with JetPei transfection reagent (Polyplus-transfection, NY, USA) according to the manufacturer's recommendation. Briefly, 2 micrograms of plasmid DNA and 6 microliter of JetPei transfection reagent were used for each transfection. Each of the components were resuspended in 100 microliter of 150 mM NaCl, mixed and incubated for 25 minutes at room temperature and after incubation added to cells.
(§6) Cells were then seeded in a 96-well flat-bottom microplate (Costar, Corning, N.Y.) at a concentration of 5×10^4 cells/well. Twelve hours later, the supernatant was removed and replaced with fresh DMEM containing various (in the nM range) concentrations of tested compounds 1-16. The cells were incubated for additional time intervals ranging from 0.5-24 hr. At the end of the incubation period, supernatant was discarded and the cells were washed twice with cold PBS. The plates were examined using IX81 inverted microscope (Olympus, Japan) equipped with […] digital camera. Additionally, a FACS assay was used for quantitative analysis.
(§7) Quantitative assessment of binding affinity of Compounds 1-16 was performed by FACS in the transfected HEK cell model.
(§8) Quantitatively, specific binding affinity was assessed as the percentage of double stained [(GR=green and red indicating transfection)/(R is total red) less (G is green indicating unspecific binding)]: specific binding affinity=[GR/R−G]

SSTR1-SSTR5 = experiment: Binding specificity across the five SSTRx transfected HEK cell lines; set-up: species or system human; details: conclusions drawn from Table 2-A
Method: Biological activity assessment of the compounds to define a specific affinity to each subtype was performed by FACS and fluorescence imaging methods. Human SSTRx were expressed in the cells by transient transfection. Each SSTR was expressed separately, creating five different cell lines using human gene transcript. The transfection process is illustrated in FIG. 1. The transient transfection process was carried out before each experiment. Briefly, HEK cells were cultured in standard cell growth conditions. For testing, the cells were transferred into 96-well plates. The tested compounds were dissolved in DMSO and then diluted in a buffer solution to a final DMSO concentration of 5% as a composition according to the teachings herein. Various amounts of the thus-prepared compositions were added to the cells in medium in the 96-well plates and allowed to incubate for between 1 and 24 hours. Binding was determined using fluorescent microscopy and FACS. Cells were then seeded in a 96-well flat-bottom microplate (Costar, Corning, N.Y.) at a concentration of 5×10^4 cells/well. […] Additionally, a FACS assay was used for quantitative analysis. […] Quantitatively, specific binding affinity was assessed as the percentage of double stained [(GR=green and red indicating transfection)/(R is total red) less (G is green indicating unspecific binding)]: specific binding affinity=[GR/R−G]

human SSTR4 = target: T2, human SSTR4 (Homo sapiens, UniProt P31391); experiment: Binding to transfected HEK cells expressing a single SSTRx subtype, FACS
T2 construct: expressed in transfected cells; host or cells: HEK-293, transient transfection, pcDNA 3.1
T2 sequence (P31391 whole entry): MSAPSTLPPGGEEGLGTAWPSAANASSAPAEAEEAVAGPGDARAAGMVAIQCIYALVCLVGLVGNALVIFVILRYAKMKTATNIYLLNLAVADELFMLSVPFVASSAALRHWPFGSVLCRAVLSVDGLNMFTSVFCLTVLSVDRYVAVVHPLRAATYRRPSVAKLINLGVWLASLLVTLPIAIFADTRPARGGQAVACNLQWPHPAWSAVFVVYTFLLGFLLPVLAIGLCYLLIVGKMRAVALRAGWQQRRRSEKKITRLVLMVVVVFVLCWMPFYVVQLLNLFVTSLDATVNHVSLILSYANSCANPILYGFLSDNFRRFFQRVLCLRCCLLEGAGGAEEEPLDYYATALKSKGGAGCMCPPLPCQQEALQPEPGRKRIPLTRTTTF
Method: as §1, §2, §3, §4, §5, §6, §7, §8

human SSTR3 = target: T3, human SSTR3 (Homo sapiens, UniProt P32745); experiment: as above
T3 construct: expressed in transfected cells; host or cells: HEK-293, transient transfection, pcDNA 3.1
T3 sequence (P32745 whole entry): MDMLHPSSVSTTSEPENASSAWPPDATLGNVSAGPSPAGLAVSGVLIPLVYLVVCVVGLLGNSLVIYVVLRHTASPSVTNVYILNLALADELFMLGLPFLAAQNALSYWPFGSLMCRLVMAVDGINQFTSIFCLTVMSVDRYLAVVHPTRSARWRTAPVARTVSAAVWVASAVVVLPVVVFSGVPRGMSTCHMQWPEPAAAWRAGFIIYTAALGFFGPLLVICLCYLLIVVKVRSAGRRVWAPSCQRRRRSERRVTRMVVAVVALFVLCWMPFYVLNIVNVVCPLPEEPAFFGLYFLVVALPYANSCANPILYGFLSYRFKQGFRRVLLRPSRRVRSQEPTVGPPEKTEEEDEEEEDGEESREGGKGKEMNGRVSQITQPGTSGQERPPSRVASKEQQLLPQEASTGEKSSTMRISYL
Method: as §1, §2, §3, §4, §5, §6, §7, §8

human SSTR2 = target: T4, human SSTR2 (Homo sapiens, UniProt P30874); experiment: as above
T4 construct: expressed in transfected cells; host or cells: HEK-293, transient transfection, pcDNA 3.1
T4 sequence (P30874 whole entry): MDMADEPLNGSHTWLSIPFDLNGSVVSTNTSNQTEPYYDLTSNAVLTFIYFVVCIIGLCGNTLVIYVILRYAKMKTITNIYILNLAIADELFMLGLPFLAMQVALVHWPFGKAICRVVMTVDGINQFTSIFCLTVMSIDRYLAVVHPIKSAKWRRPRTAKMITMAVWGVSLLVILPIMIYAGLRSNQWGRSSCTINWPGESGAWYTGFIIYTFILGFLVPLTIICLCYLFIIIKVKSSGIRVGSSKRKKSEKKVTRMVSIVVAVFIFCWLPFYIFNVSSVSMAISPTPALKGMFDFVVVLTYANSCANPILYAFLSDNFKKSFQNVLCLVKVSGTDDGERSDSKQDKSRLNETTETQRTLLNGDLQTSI
Method: as §1, §2, §3, §4, §5, §6, §7, §8

human SSTR1 = target: T5, human SSTR1 (Homo sapiens, UniProt P30872); experiment: as above
T5 construct: expressed in transfected cells; host or cells: HEK-293, transient transfection, pcDNA 3.1
T5 sequence (P30872 whole entry): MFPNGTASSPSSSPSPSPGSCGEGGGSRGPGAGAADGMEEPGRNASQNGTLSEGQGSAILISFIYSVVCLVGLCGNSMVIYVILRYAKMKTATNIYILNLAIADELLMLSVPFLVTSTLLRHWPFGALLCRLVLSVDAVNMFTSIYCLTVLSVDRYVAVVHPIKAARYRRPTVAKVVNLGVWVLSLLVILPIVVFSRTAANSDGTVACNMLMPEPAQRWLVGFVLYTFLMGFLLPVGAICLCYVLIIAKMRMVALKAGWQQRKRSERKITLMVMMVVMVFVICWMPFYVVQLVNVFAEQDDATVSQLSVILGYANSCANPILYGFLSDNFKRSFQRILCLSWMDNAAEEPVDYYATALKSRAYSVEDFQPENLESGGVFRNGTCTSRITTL
Method: as §1, §2, §3, §4, §5, §6, §7, §8

[1] = FACS, transfected HEK, specific binding affinity = percentage double stained [GR/R−G], 0 = no binding detected
[2] = Table 2 normalized according to the highest binding affinity of that compound
[3] = Table 2 normalized to Compound 1 (=100)

Compound | Intensity in healthy tissue (in words) (PANC-1 tumors) | Relative binding affinity SSTR5 (human SSTR5; [1]) | Adjusted binding affinity SSTR5 (human SSTR5; [2]) | Binding affinity to SSTR5 relative to Compound 1 (human SSTR5; [3]) | Binding specificity among the five SSTRx (in words) (SSTR1-SSTR5) | Relative binding affinity SSTR4 (human SSTR4; [1]) | Adjusted binding affinity SSTR4 (human SSTR4; [2]) | Binding affinity to SSTR4 relative to Compound 1 (human SSTR4; [3]) | Relative binding affinity SSTR3 (human SSTR3; [1]) | Adjusted binding affinity SSTR3 (human SSTR3; [2]) | Binding affinity to SSTR3 relative to Compound 1 (human SSTR3; [3]) | Relative binding affinity SSTR2 (human SSTR2; [1]) | Adjusted binding affinity SSTR2 (human SSTR2; [2]) | Binding affinity to SSTR2 relative to Compound 1 (human SSTR2; [3]) | Relative binding affinity SSTR1 (human SSTR1; [1]) | Adjusted binding affinity SSTR1 (human SSTR1; [2]) | Binding affinity to SSTR1 relative to Compound 1 (human SSTR1; [3])
C[C@@H](O)[C@@H]1NC(=O)[C@H](CCCCN)NC(=O)[C@@H](Cc2c[nH]c3ccccc23)NC(=O)[C@H](Cc2ccccc2)NC(=O)[C@H](CCCNC(=N)N)NC(=O)[C@@H](NC(=O)CCCNC(=S)Nc2ccc3c(c2)C(=O)OC32c3ccc(O)cc3Oc3cc(O)ccc32)CSSCCN(CC(N)=O)C(=O)[C@H](Cc2ccccc2)NC1=O [Compound 9, FITC-GABA-Cys-Arg-Phe-D-Trp-Lys-Thr-Phe-GlyS2] ({FITC-GABA}-CRF[dW]KTF[N(2-mercaptoethyl)Gly]-NH2; disulfide 1-8) | undetectable in the healthy tissues |  |  |  |  |  |  |  |  |  |  |  |  |  |  |  | 
C[C@@H](O)[C@@H]1NC(=O)C(C)(C)NC(=O)[C@@H](Cc2c[nH]c3ccccc23)NC(=O)[C@H](Cc2c[nH]c3ccccc23)NC(=O)[C@H](Cc2ccccc2)NC(=O)[C@@H](NC(=O)[C@@H](Cc2ccccc2)NC(=O)CCCNC(=S)Nc2ccc3c(c2)C(=O)OC32c3ccc(O)cc3Oc3cc(O)ccc32)CSSCCN(CC(N)=O)C(=O)[C@H](Cc2ccccc2)NC1=O [Compound 13, FITC-GABA-D-Phe-Cys-Phe-Trp-D-Trp-Aib-Thr-Phe-GlyS2] ({FITC-GABA}-[dF]CFW[dW][Aib]TF[N(2-mercaptoethyl)Gly]-NH2; disulfide 2-9) |  | 9 | 1 | 32 | to SSTR3 and SSTR5 and not SSTR1, SSTR2 and SSTR4 | 4 | 0.44 | 18 | 6 | 0.67 | 35 | 0 | 0 | 0 | 1 | 0.11 | 33
